Assay results from patent US20240317884A1, “METHOD FOR ALLOWING IMMUNE CELLS INFILTRATION IN TUMORS” (Alethia Biotherapeutics Inc., priority 2021, published 2024).
“And” between values parts separate entries of the source, which are not always exact repeats. Equal entries are not always repeated. “Also recorded” adds a separate entry of the source.

What was measured:
[1] = test system: advanced solid malignancy; experiment: Phase I study AB-16B5-101: tumor response (RECIST); type: in vivo, human
[2] = Non-clinical toxicity, weekly administration, rats; type: in vivo, Sprague-Dawley rats
Description: This finding most likely reflects a slight antigenic stimulation by AB-16B5 in these 2 regional lymph nodes.

[3] = test system: tumor biopsies; experiment: Human tumor biopsies of patients treated with AB-16B5 as single agent (H&E); type: in vivo; conditions: after the second cycle
Description: In parallel human tumor biopsies of patients treated with AB-16B5 as single agent were analyzed (FIGS. 2B-2E). Needle biopsies obtained from a patient with metastatic thyroid cancer and form a patient with inoperable metastatic gastric cancer were sectioned and stained with hematoxylin and eosin. An on-treatment biopsy from a patient with thyroid cancer metastasic to the lungs was obtained after the second cycle treatment with AB-16B5. […] Hemosiderin-laden macrophages were observed inside necrotic areas some reflecting red blood cell extravasation associated with necrosis (not shown). […] On display one finds.

[4] = molecular target: T1, sCLU (Macaca mulatta, UniProt F6S885); experiment: sCLU serum concentrations after single dose of AB-16B5; type: in vivo; conditions: Rhesus monkeys
T1 construct: from tissue; host or cells: serum of Rhesus monkeys dosed with AB-16B5
T1 sequence (F6S885 22-448): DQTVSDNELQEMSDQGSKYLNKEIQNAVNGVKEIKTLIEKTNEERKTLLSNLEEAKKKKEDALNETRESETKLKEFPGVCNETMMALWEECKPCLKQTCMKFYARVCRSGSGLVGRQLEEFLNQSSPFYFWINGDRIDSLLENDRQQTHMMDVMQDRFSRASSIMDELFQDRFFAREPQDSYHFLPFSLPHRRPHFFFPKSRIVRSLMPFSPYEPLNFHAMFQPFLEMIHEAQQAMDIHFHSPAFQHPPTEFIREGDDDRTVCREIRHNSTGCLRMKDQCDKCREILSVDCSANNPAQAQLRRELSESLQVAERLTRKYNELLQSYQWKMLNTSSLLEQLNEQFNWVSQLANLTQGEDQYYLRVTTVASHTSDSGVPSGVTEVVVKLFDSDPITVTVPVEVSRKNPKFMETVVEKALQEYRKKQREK
Description: (§1) There was an approximate 70% increase in systemic exposure following repeated dosing from Day 1 to Day 26 which is consistent with the elimination half-life of AB-16B5 and the dosing intervals. […] The sCLU concentrations were generally back to their baseline levels after 3 to 5 days. The concurrent decrease in sCLU concentrations immediately following dosing with AB-16B5 is consistent with an antigen-sink phenomenon.

[5] = Phase I study AB-16B5-101: safety profile; type: in vivo, human
[6] = Non-clinical pharmacokinetics, single and repeat-dose, rats; type: in vivo; conditions: Sprague-Dawley rats; infusion
Description: as §1

[7] = test system: frozen tissues from human, Rhesus monkey, and Sprague-Dawley rat; experiment: Tissue cross-reactivity study; type: binding; conditions: AB-16B5 staining at 2 and 10 μg/mL
Description: In addition, a tissue cross-reactivity study was conducted to determine the potential cross-reactivity of AB-16B5 with frozen tissues from human, Rhesus monkey, and Sprague-Dawley rat tissues.

[8] = test system: tumor biopsies; experiment: Phase I: necrosis in tumor biopsies; type: in vivo, human; conditions: for Necrosis Pre-Treatment: baseline
Description: Tumor biopsies were collected during the standard dose escalation to investigate the presence of AB-16B5 within the tumor. A total of 4 pre-treatment and 5 post-treatment tumor biopsies were suitable for analysis. These post-treatment tumor biopsies were collected following dosing on Cycle 2 Day 15 (between Cycle 2 Day 15 and Cycle 2 Day 18). The biopsy sites were liver (n=2), lymph node (n=2), bladder, skin and vulva.
Immunohistochemistry studies were conducted on paired tumor biopsies to determine if the treatment with AB-16B5 was associated with a reacquisition of an epithelial phenotype.

[9] = Subject 001, Pancreatic, 1.5 mg/kg weekly IV, 2 cycles
[10] = Subject 003, Soft Tissue Sarcoma, 6.0 mg/kg weekly IV, 2 cycles
[11] = Subject 005, Prostate, 6.0 mg/kg weekly IV, 2 cycles
[12] = Subject 010, Colorectal, 12.0 mg/kg weekly IV, 4 cycles
[13] = Subject 012, Breast, 12.0 mg/kg weekly IV, 2 cycles
[14] = Subject 013, Prostate, 12.0 mg/kg weekly IV, 2 cycles
[15] = Subject 014, Vulvar Melanoma, 12.0 mg/kg weekly IV, 2 cycles

For “AB-16B5: humanized IgG2 monoclonal antibody targeting sCLU; light chain SEQ ID NO:11, heavy chain SEQ ID NO:12”, the “best overall response stable disease (SD), share of subjects” value ([1]; RECIST-evaluable population (14 subjects), 1.5-12.0 mg/kg) was 57%, the “Best Overall Response” value [1, 9] was “PD (progressive disease (PD))” and the “Tumor Response at Last Assessment Non-Target Lesions” value [1, 9] was “PD (New (progressive disease (PD))”. The “Tumor Response at Last Assessment Target Lesions” value [1, 9] was “PD (progressive disease (PD))”, the “Tumor Response at Last Assessment Target Lesions” value ([1]; Subject 002, Endometrium, 3.0 mg/kg weekly IV, 4 cycles) was “PD (progressive disease (PD))” and the “Best Overall Response” value [1, 10] was “PD (progressive disease (PD))”. For the same substance, the “Tumor Response at Last Assessment Non-Target Lesions” value [1, 10] was “PD (New (progressive disease (PD))”, the “Best Overall Response” value [1, 11] was “PD (progressive disease (PD))” and the “Tumor Response at Last Assessment Target Lesions” value [1, 11] was “PD (progressive disease (PD))”. For the same substance, the “Tumor Response at Last Assessment Non-Target Lesions” value ([1]; Subject 007, Gastric, 9.0 mg/kg weekly IV, 8 cycles) was “PD (New (progressive disease (PD))”, the “Tumor Response at Last Assessment Non-Target Lesions” value ([1]; Subject 008, Thyroid, 9.0 mg/kg weekly IV, 4 cycles) was “PD (New (progressive disease (PD))” and the “Tumor Response at Last Assessment Non-Target Lesions” value ([1]; Subject 009, Lung, 12.0 mg/kg weekly IV, 6 cycles) was “PD (New (progressive disease (PD))”. The “Tumor Response at Last Assessment Non-Target Lesions” value [1, 12] was “PD (New (progressive disease (PD))”, the “Tumor Response at Last Assessment Target Lesions” value [1, 12] was “PD (progressive disease (PD))” and the “Best Overall Response” value [1, 13] was “PD (progressive disease (PD))”. For the same substance, the “Tumor Response at Last Assessment Non-Target Lesions” value [1, 13] was “PD (progressive disease (PD))”, the “Best Overall Response” value [1, 14] was “PD (progressive disease (PD))” and the “Tumor Response at Last Assessment Non-Target Lesions” value [1, 14] was “PD (New (progressive disease (PD))”. For the same substance, the “Best Overall Response” value [1, 15] was “PD (progressive disease (PD))”, the “Tumor Response at Last Assessment Non-Target Lesions” value [1, 15] was “PD (New (progressive disease (PD))” and the “Tumor Response at Last Assessment Non-Target Lesions” value ([1]; Subject 015, Ovarian Cancer, 12.0 mg/kg weekly IV, 4 cycles) was “PD (New (progressive disease (PD))”. The “time on treatment with stable disease (SD) and clinical benefit” value ([1]; patient with advanced gastric cancer) was 24 weeks, the “No Observable Adverse Effect Level (NOAEL)” value ([2]; Sprague-Dawley rats, weekly administration) was 100 mg/kg/dose and the “incidence of minimal lymphoid hypercellularity, mandibular lymph node” value ([2]; rat, in vivo) was 1/20. For the same substance, the “incidence of minimal lymphoid hypercellularity, mesenteric lymph node” value ([2]; rat, in vivo) was 2/20, the “treatment-related clinical signs and changes (body weight, food consumption, ophthalmology, clinical pathology, organ weights)” value ([2]; rat, in vivo) was “did not result in any treatment-related clinical signs” and the “immune infiltrate, on-treatment biopsy” value ([3]; patient with inoperable metastatic gastric cancer, small fragments) was “infiltrated by a mix neutrophilic and mononucleated immune cells infiltrate”. The “immune infiltrate, on-treatment biopsy” value ([3]; patient with thyroid cancer metastatic to the lungs, edge of fragment) was “lymphoplasmacytic infiltrate was observed”, the “necrosis of tumor fragments, on-treatment biopsy” value ([3]; patient with thyroid cancer metastatic to the lungs, single agent) was “essentially all tumor fragments were necrotic” and the “sCLU serum concentrations following dosing” value [4] was “decreased significantly”. For the same substance, the “subjects reporting SAEs” value ([5]; 5 of 15 subjects, all SAEs considered unrelated to AB-16B5) was 33%, the “AEs reported, total” value ([5]; 15 subjects, all causalities) was 167 and the “dose at which weekly infusion was safe and well tolerated” value ([5]; 60-minute IV weekly infusion) was “up to 12 mg/kg”. The dose-limiting toxicity ([5]; 60-minute IV weekly infusion, 1.5 to 12.0 mg/kg, 15 subjects) was “No dose-limiting toxicity; also recorded: No dose-limiting toxicities”, the “deaths reported in the study” value ([5]; Subjects 004 and 014, associated with progression of the disease) was “Two” and the “number of SAEs” value ([5]; all considered unrelated to AB-16B5) was 6 and 5. For the same substance, the “AEs of Grade 3 to 5” value ([5]; reported by 8 subjects) was 12, the “subjects who discontinued the study due to an adverse event” value ([5]; two subjects (004, 011)) was 13% and the “systemic exposure over 24 hours with increasing dose levels” value [6] was “dose proportional manner”. For the same substance, the “membrane staining in tissue panels” value [7] was “no membrane staining was observed”, the “Necrosis Post-Treatment” value ([8]; Subject 006, Breast, biopsy site Skin, 9.0 mg/kg) was 10% and the “Necrosis Pre-Treatment” value ([8]; Subject 006, Breast, biopsy site Skin) was 0%. The “Necrosis Post-Treatment” value ([8]; Subject 007, Gastric, biopsy site Gastric, 9.0 mg/kg) was 0%, the “Necrosis Pre-Treatment” value ([8]; Subject 007, Gastric, biopsy site Gastric) was 0% and the “Necrosis Post-Treatment” value ([8]; Subject 012, Breast, biopsy site Skin, 12.0 mg/kg) was 5%. For the same substance, the “Necrosis Pre-Treatment” value ([8]; Subject 012, Breast, biopsy site Skin) was 0%, the “Necrosis Post-Treatment” value ([8]; Subject 013, Prostate, biopsy site Bladder, 12.0 mg/kg) was 10% and the “Necrosis Pre-Treatment” value ([8]; Subject 013, Prostate, biopsy site Bladder) was 0%.
